We go through 1 compound from patent US20170348306A1, “METHODS OF TREATING CANCER” (GLAXOSMITHKLINE LLC, priority 2011, published 2017).

Like-named read-outs stand apart in the source and are kept apart here.

The subject of series [1] is KARPAS-422. Briefly: Cell proliferation assay (6 days, CellTiter-Glo). The series is classed as cell-based, human. The source says:
(§1) Thus, Example 22 and Table 6 better reflect the inhibition of HZH2 inhibitors on cell lines, e.g. the lymphoma cell lines. DLBCL cell lines were the most sensitive to EZH2 inhibition (FIG. 11a). […] Evaluation of GSK126 in additional lymphoma cell lines and extensive genomic and epigenomic characterization will be required to fully elucidate the determinants of sensitivity among lymphoma subtypes.
(§2) Biochemical assays utilized the 5-member PRC2 complex (human Flag-EZH2, EED, SUZ12, AEBP2, RbAp48) containing either WT or mutant EZH2, [^3H-]SAM and the indicated peptide substrate; reactions were incubated for 30 minutes. Global histone modification levels were determined by ELISA or western blot methods using antibodies specific for total histone H3, H3K27me1, H3K27me2, or H3K27me3. Cell proliferation and Caspase-3/7 activity were assessed using CellTiter-Glo and Caspase-Glo 3/7 (Promega), respectively. Gene expression profiling was conducted using Affymetrix Human Genome U133 Plus 2.0 microarrays. Differentially-expressed probe sets were determined by fitting the data to a linear model using the limma statistical package (http://www.bioconductor.org) and carrying out pair-wise contrasts of treated versus control. Significant probe sets were filtered for detection (log2 signal threshold of 8), an average fold-change >2 or <−2, or >1.5 or <−1.5, where indicated, with p-values adjusted for multiple testing correction by FDR (Benjamini Hochberg)<0.1. H3K27me3 ChIP reads were aligned using Bowtie (56). H3K27me3 enrichment peaks were identified using SICER (57) with optimized parameters. A custom PERL script was utilized to quantify the average basal H3K27me3 ChIP-seq tag density across gene sets. All in vivo studies were conducted after review by the Institutional Animal Care and Use Committee at GSK and in accordance with the GSK Policy on the Care, Welfare and Treatment of Laboratory Animals. GSK126 and vehicle were administered to mice intraperitoneally. Two-tailed t-tests were conducted assuming two samples of equal variance.
(§3) The optimal cell seeding was determined empirically for all cell lines by examining the growth of a wide range of seeding densities in a 384-well format to identify conditions that permitted proliferation for 6 days. […] Plates were incubated for 6 days at 37° C. in 5% CO2. Cells were then lysed with CellTiter-Glo (Promega) and chemiluminescent signal was detected with a TECAN Safire2 microplate reader. In addition, an untreated plate of cells was harvested at the time of compound addition (T0) to quantify the starting number of cells. CTG values obtained after the 6 day treatment were expressed as a percent of the T0 value and plotted against compound concentration.
(In general: Cellular ATP, detected with luciferase, serves as a proxy for viable cell number.)

Another series concerns Pfeiffer. As to the kind of experiment: Cell proliferation assay (6 days, CellTiter-Glo). It is filed as cell-based, human.
From the text: as §1, §2, §3

The next series concerns the target T1, EZH2 (Homo sapiens, UniProt Q15910).
T1 construct: TEV site (FLAG-tev-EZH2) (N); made in house; host or cells: Sf9 insect cells (baculovirus)
As to the kind of experiment: Mechanism of GSK126 inhibition of EZH2 (IC50 at varied SAM and peptide). The series is classed as biochemical. The following applies: SAM 0.1-15 μM; peptide 16-60 μM. From the text:
The resulting IC50 values were plotted against the [SAM]/Km ratio or the [peptide]/Km ratio respectively.

Series [2] relates to H3K27me3/2/1, histone H3, EZH2, SUZ12, EED in lymphoma cell lines. As to the kind of experiment: Western blot of H3K27 methylation status and PRC2 components following GSK126 treatment. The series is classed as cell-based, human. On the procedure:
Cell lines were obtained from the American Type Culture Collection or the Deutsche Sammlung von Mikroorganismen und Zellbulturen and maintained in the recommended cell culture media at 37° C. in 5% CO2. Cells were lysed with radioimmunoprecipitation (RIPA) buffer (ThermoScientific) and western blot analysis was conducted as previously described (41). Antibodies were obtained as previously described (41) or from Cell Signaling Technology (SUZ12, 3737), or Santa Cruz Biotechnology (EED, sc-28701).
Cells (2×10^5/well) were seeded into six-well tissue culture plates in the appropriate cell culture media 24 hours before treatment.

Series [3] concerns KARPAS-422. Briefly: Cell cycle analysis by flow cytometry. The series is classed as cell-based, human. As to conditions: 500 nM GSK126, 72 hours. Here is the method: Cell cycle phase distribution was examined by flow cytometry. […] Cells were washed with PBS, pelleted in BD buffer solution, flash frozen, and stored at −80° C. CycleTest™ PLUS DNA reagent kit (Becton Dickinson, 340242) was used according to the manufacturer's instructions to prepare and stain nuclei with propidium iodide. Samples were evaluated using a FACSCalibur flow cytometer (Becton Dickinson) and data were analyzed using FlowJo software (Tree Star).

The next series has as its system KARPAS-422 xenografts. As to the kind of experiment: Subcutaneous tumor xenograft efficacy study. It is filed as in vivo, mice. The following applies: for tumor response upon cessation of dosing / tumor growth: KARPAS-422 xenografts. Here is the method:
as §2
(§4) All studies were conducted after review by the Institutional Animal Care and Use Committee at GSK and in accordance with the GSK Policy on the Care, Welfare and Treatment of Laboratory Animals. […] Pfeiffer or KARPAS-422 cells (1×10^7) in 100% matrigel (BD Biosciences) were implanted subcutaneously in female beige SCID mice. Tumors were measured with calipers, block randomized according to tumor size into treatment groups. […] Mice were weighed and tumors measured with calipers twice weekly. For mouse pharmacokinetic studies, tumor and blood samples were harvested from euthanized mice at the indicated time. […] For pharmacodynamic studies, a portion of each tumor was frozen for H3K27me3/H3 ELISAs or placed in RNAlater (Ambion) for RNA isolation. For peripheral blood analyses, blood was harvested via cardiac puncture from euthanized, immunocompetent CD-1 mice (3 mice/group) on day 18. Blood was immediately placed into a Microtainer EDTA tube (BD) and gently mixed by inverting. A complete blood count analysis was conducted using the Advia 2120 hematology analyzer (Siemens Medical Solutions) using multi-species software as per manufacturer's instructions.

For a further series, the system named is Pfeiffer xenografts. Briefly: Subcutaneous tumor xenograft efficacy study. The series is classed as in vivo, mice. As to conditions: daily 50 mg/kg, intraperitoneal. Here is the method:
as §2, §4

Series [4] can be described thus: Tolerability in xenograft-bearing mice (body weight, behavior). The series is classed as in vivo. On the procedure: as §4
Series [5] can be described thus: Complete blood count analysis of peripheral blood. It is filed as in vivo. The following applies: immunocompetent CD-1 mice; twice weekly dosing over 18 days. On the procedure: as §4
The subject of series [6] is B-cell lymphoma cell lines. Briefly: Cell proliferation assay (6 days, CellTiter-Glo), panel. The following applies: Homo sapiens, 144 h, read-out: growth IC50. It is filed as cell-based.
From the text: as §1
Biochemical assays utilized the 5-member PRC2 complex (human Flag-EZH2, EED, SUZ12, AEBP2, RbAp48) containing either WT or mutant EZH2, [^3H-]SAM and the indicated peptide substrate; reactions were incubated for 30 minutes. Global histone modification levels were determined by ELISA or western blot methods using antibodies specific for total histone H3, H3K27me1, H3K27me2, or H3K27me3. Cell proliferation and Caspase-3/7 activity were assessed using CellTiter-Glo and Caspase-Glo 3/7 (Promega), respectively. Gene expression profiling was conducted using Affymetrix Human Genome U133 Plus 2.0 microarrays. Differentially-expressed probe sets were determined by fitting the data to a linear model using the limma statistical package (http://www.bioconductor.org) and carrying out pair-wise contrasts of treated versus control. […] H3K27me3 ChIP reads were aligned using Bowtie (56). […] A custom PERL script was utilized to quantify the average basal H3K27me3 ChIP-seq tag density across gene sets. […]

T1 sequence (Q15910 whole entry): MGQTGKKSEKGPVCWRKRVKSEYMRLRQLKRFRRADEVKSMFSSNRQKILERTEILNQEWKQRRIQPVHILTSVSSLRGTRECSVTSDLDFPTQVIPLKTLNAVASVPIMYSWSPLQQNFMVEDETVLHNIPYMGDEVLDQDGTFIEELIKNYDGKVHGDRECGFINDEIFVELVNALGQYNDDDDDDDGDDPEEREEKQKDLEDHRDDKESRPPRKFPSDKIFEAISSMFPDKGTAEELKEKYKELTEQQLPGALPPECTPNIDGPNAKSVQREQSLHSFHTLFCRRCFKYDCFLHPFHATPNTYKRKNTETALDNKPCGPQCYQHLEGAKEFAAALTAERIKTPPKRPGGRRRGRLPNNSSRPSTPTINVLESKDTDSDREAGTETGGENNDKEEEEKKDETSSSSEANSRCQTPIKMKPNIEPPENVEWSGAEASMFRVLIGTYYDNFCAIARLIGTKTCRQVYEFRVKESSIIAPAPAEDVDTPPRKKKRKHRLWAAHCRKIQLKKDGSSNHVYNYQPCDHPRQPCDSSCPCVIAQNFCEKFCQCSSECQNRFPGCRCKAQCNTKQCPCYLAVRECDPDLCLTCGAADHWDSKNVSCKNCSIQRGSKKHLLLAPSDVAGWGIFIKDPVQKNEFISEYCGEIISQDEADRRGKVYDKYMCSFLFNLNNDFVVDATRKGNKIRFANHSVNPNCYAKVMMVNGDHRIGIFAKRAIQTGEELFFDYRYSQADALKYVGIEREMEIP
T1 sequence (O75530 whole entry partner): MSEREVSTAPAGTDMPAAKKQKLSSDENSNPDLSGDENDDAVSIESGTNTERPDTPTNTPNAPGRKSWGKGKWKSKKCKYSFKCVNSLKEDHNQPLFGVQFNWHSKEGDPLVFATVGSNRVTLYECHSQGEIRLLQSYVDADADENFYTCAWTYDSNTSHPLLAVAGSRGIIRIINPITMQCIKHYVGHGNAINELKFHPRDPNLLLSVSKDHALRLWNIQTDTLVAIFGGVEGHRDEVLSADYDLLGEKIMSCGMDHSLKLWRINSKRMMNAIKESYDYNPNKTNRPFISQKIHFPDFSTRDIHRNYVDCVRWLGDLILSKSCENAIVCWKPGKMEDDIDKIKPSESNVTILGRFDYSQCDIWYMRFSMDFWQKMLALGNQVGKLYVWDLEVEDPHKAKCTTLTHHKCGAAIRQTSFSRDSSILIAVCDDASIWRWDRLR
T1 sequence (Q15022 whole entry partner): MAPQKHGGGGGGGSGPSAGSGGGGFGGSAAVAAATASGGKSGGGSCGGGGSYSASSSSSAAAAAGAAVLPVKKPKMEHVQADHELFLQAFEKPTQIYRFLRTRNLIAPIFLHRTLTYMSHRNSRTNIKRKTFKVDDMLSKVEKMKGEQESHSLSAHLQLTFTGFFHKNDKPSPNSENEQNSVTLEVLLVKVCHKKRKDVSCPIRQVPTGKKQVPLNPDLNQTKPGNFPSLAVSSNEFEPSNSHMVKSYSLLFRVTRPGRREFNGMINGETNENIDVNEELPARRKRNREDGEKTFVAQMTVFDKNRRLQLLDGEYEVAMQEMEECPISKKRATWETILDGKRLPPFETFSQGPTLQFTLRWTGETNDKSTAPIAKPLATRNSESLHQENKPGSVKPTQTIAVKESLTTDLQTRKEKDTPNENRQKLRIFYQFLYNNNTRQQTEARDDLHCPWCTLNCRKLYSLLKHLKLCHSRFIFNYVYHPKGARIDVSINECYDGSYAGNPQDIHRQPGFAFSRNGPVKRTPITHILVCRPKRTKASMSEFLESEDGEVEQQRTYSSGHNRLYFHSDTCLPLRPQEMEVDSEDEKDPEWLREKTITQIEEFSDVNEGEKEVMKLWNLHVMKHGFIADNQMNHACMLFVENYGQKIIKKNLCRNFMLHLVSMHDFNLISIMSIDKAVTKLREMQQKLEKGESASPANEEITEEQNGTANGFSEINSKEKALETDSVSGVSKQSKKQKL
T1 sequence (Q09028 whole entry partner): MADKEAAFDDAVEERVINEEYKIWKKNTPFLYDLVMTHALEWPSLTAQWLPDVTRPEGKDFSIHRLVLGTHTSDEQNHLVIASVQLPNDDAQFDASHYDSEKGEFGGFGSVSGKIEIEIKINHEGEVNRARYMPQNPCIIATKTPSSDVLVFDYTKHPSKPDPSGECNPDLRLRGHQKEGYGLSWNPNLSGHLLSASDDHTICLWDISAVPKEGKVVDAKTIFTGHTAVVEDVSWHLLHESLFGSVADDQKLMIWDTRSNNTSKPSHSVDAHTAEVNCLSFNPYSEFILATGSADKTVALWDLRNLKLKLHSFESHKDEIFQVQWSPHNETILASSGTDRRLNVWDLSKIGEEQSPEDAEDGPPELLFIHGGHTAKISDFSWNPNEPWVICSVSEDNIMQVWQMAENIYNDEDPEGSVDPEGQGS
T1 sequence (Q6ZN18 1-503 partner limits assumed): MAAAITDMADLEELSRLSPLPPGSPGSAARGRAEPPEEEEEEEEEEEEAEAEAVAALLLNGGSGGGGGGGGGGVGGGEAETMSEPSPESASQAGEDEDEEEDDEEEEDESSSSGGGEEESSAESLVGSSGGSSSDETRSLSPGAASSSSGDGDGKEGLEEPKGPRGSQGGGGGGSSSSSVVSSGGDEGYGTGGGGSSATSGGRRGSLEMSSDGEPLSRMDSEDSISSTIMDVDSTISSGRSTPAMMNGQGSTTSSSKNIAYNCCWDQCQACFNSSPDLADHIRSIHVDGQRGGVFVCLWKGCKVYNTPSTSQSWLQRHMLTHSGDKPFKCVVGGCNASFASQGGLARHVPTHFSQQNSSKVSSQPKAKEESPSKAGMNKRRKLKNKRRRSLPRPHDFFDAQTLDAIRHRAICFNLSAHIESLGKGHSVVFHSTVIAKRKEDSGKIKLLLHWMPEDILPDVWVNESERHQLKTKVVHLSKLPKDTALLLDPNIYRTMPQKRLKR

As a reminder, the IC50 is the concentration needed to halve the response being measured. Regarding `CC[C@H](C)n1cc(C)c2c(C(=O)NCc3c(C)cc(C)[nH]c3=O)cc(-c3ccc(N4CCNCC4)nc3)cc21` [GSK126], the “time required for maximal potency on growth” value in the series with KARPAS-422 [1] was 6 to 7 days. Also, the 50% inhibitory concentration (IC50) was 232 nM in the series with KARPAS-422 [1] (Homo sapiens, 144 h, 6 days, DLBCL, EZH2 Y641F (HET), read-out: AVERAGE GROWTH IC50); 28 nM in the series with Pfeiffer (Homo sapiens, 144 h, […], 6 days, DLBCL, EZH2 A677G (HET), read-out: AVERAGE GROWTH IC50); above 1300 nM in [6] (Burkitt (BL) and Hodgkin's (HL) lymphoma cell lines, with the exception of Jiyoye); 28 to 861 nM in series [6] (B-cell, six of the seven most sensitive DLBCL cell lines, harboring Y641N, Y641F, or A677G EZH2 mutations). Further, in the series on Pfeiffer, the “time after which net decreases in cell number were evident” value is reported as 3 days. In addition, the “time after which potent inhibition of cell proliferation was observed” value in the series with Pfeiffer is 2 days. The mechanism of inhibition result at EZH2 is “competitive with SAM and non-competitive with peptide substrates”. Moreover, in [2] (25 nM-2 μM, 72 hrs), the “Total histone H3 and PRC2 components” value is reported as “not affected”. Also, in series [2] (72 hours), the H3K27me1 level entry is given as “only weakly reduced at the highest inhibitor concentration”. Also, in the series with KARPAS-422 [3], the “cells in G1” value was 77%. Moreover, the tumor growth inhibition in the series with KARPAS-422 xenografts (KARPAS-422 xenografts with large tumors, intermittent dosing, weekly or with 1 week drug holiday, all schedules) is reported as 91-100%. Besides, the figures for the “tumor response upon cessation of dosing” value in the series with KARPAS-422 xenografts (50 mg/kg QD group), with KARPAS-422 xenografts (150 mg/kg QD group) and in the series on KARPAS-422 xenografts (300 mg/kg twice/week group) were “tumor stasis”, “complete tumor eradication” and “complete tumor eradication”, respectively. Moreover, the tumor growth entry in the series with KARPAS-422 xenografts (daily 50 mg/kg, intraperitoneal) is reported as “complete tumor growth inhibition”; with KARPAS-422 xenografts (higher dosing regimens), “marked tumor regression”; with Pfeiffer xenografts, “complete tumor growth inhibition”. The survival of mice result in the series on KARPAS-422 xenografts (mice bearing KARPAS-422 tumors) is on record as “statistically significant increased survival”. Also, the tolerability entry in series [4] (doses and schedules examined, mice with xenografts) is given as “well tolerated”. For the same compound, the body weight entry in series [4] (mice bearing Pfeiffer or KARPAS-422 xenografts) is “little to no decrease in body weight”. In addition, the “complete blood count, blood cell types” value in series [5] is “no significant changes”.
